Measured values: patent US10071957B2, “N-substituted benzamides and methods of use thereof” (GENENTECH, INC., priority 2012, dated 2018)

Columns and labels:
[1] = biological target: T1, hNaV1.7 (Homo sapiens (Human), UniProt Q15858); experiment: Competitive binding of tritiated compound to membranes from cells expressing hNav1.7 and the β1 subunit; settings: 100 pM [3H]compound, 18 h, room temperature; read-out: NaV1.7 395 Membrane Binding IC50
Outline: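 Membranes from cells expressing hNav1.7 with β1 subunit incubated 18 h at room temperature with 100 pM tritiated reference compound and test compound in 100 mM NaCl, 20 mM Tris HCl, pH 7.4. Nonspecific binding defined with 1 μM unlabelled compound; bound radioactivity counted after GF/C filtration. IC50 from 4-parameter logistic fit.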

[2] = biological target: T1, hNaV1.7; experiment: Patch voltage clamp electrophysiology, inactivated state block of NaV1.7 in HEK-293 cells; assay type: cell-based; settings: HEK cells with β1 subunit, read-out: hNaV 1.7 IC50
Procedure: (§1) Patch voltage clamp electrophysiology allows for the direct measurement and quantification of block of voltage-gated sodium channels (NaV's), and allows the determination of the time- and voltage-dependence of block which has been interpreted as differential binding to the resting, open, and inactivated states of the sodium channel (Hille, B., Journal of General Physiology (1977), 69: 497-515).
(§2) The following patch voltage clamp electrophysiology studies were performed on representative compounds of the invention using human embryonic kidney cells (HEK), permanently transfected with an expression vector containing the full-length cDNA coding for the desired human sodium channel α-subunit, grown in culture media containing 10% FBS, 1% PSG, and 0.5 mg/mL G418 at 37° C. with 5% CO2. […] NaV1.7 and NaV1.5 cDNAs (NM_002977 and AC137587; SCN5A, respectively) were stably expressed in HEK-293 cells. The β1 subunit was coexpressed in both the NaV1.7 and NaV1.5 cell lines.
(§3) Sodium currents were measured using the patch clamp technique in the whole-cell configuration using either a PatchXpress automated voltage clamp or manually using an Axopatch 200B (Axon Instruments) or Model 2400 (A-M systems) amplifier. The manual voltage clamp protocol was as follows:
(§4) The pipette was filled with a solution comprised of: 5 mM NaCl, 10 mM CsCl, 120 mM CsF, 0.1 mM CaCl2, 2 mM MgCl2, 10 mM HEPES, 10 mM EGTA; and adjusted to pH 7.2 with CsOH. The external solution had the following composition: 140 mM NaCl, 5 mM KCl, 2 mM CaCl2, 1 mM MgCl2, 10 mM HEPES; and adjusted to pH 7.4 with NaOH. In some studies, the external sodium was reduced by equimolar replacement with choline. Osmolarity in the CsF internal and NaCl external solutions was adjusted to 300 mOsm/kg and 310 mOsm/kg with glucose, respectively. All recordings were performed at ambient temperature in a bath chamber with a volume of 150 μL. Control sodium currents were measured in 0.5% DMSO. Controls and representative compounds of the invention were applied to the recording chamber through a 4-pinch or 8-pinch valve bath perfusion system manufactured by ALA Scientific Instruments.
(§5) Currents were recorded at 40 kHz sampling frequency, filtered at […], and stored using a Digidata-1322A analogue/digital interface with the pClamp software (Axon Instruments). Series resistance compensation was applied (60-80%). […] All statistics in this study are given as mean±SD.
The membrane potential was maintained at a voltage where inactivation of the channel is complete (which was −60 mV for both NaV1.7 and NaV1.5). […] The percent decrease in sodium current following wash-on of compound was taken as the percent block of sodium channels.

[3] = biological target: hNaV1.5 (Homo sapiens (Human), UniProt Q14524); experiment: Patch voltage clamp electrophysiology, inactivated state block of NaV1.5 in HEK-293 cells; assay type: cell-based; settings: HEK cells with β1 subunit, read-out: hNaV 1.5 IC50
Procedure: as §1, §2, §3
as §4, with “Borosilicate glass micropipettes were fire-polished to a tip diameter yielding a resistance of 2-4 Mohms in the working solutions. The pipette” for “The pipette”
as §5
The membrane potential was maintained at a voltage where inactivation of the channel is complete (which was −60 mV for both NaV1.7 and NaV1.5). The voltage is then stepped back to a very negative (Vhold=[…]) voltage for 20 ms and then a test pulse is applied to quantify the compound block. The 20 ms brief repolarization was long enough for compound-free channels to completely recover from fast inactivation, but the compound-bound channels recovered more slowly such that negligible recovery could occur during this interval. The percent decrease in sodium current following wash-on of compound was taken as the percent block of sodium channels.

T1 sequence (Q15858 whole entry, looked up): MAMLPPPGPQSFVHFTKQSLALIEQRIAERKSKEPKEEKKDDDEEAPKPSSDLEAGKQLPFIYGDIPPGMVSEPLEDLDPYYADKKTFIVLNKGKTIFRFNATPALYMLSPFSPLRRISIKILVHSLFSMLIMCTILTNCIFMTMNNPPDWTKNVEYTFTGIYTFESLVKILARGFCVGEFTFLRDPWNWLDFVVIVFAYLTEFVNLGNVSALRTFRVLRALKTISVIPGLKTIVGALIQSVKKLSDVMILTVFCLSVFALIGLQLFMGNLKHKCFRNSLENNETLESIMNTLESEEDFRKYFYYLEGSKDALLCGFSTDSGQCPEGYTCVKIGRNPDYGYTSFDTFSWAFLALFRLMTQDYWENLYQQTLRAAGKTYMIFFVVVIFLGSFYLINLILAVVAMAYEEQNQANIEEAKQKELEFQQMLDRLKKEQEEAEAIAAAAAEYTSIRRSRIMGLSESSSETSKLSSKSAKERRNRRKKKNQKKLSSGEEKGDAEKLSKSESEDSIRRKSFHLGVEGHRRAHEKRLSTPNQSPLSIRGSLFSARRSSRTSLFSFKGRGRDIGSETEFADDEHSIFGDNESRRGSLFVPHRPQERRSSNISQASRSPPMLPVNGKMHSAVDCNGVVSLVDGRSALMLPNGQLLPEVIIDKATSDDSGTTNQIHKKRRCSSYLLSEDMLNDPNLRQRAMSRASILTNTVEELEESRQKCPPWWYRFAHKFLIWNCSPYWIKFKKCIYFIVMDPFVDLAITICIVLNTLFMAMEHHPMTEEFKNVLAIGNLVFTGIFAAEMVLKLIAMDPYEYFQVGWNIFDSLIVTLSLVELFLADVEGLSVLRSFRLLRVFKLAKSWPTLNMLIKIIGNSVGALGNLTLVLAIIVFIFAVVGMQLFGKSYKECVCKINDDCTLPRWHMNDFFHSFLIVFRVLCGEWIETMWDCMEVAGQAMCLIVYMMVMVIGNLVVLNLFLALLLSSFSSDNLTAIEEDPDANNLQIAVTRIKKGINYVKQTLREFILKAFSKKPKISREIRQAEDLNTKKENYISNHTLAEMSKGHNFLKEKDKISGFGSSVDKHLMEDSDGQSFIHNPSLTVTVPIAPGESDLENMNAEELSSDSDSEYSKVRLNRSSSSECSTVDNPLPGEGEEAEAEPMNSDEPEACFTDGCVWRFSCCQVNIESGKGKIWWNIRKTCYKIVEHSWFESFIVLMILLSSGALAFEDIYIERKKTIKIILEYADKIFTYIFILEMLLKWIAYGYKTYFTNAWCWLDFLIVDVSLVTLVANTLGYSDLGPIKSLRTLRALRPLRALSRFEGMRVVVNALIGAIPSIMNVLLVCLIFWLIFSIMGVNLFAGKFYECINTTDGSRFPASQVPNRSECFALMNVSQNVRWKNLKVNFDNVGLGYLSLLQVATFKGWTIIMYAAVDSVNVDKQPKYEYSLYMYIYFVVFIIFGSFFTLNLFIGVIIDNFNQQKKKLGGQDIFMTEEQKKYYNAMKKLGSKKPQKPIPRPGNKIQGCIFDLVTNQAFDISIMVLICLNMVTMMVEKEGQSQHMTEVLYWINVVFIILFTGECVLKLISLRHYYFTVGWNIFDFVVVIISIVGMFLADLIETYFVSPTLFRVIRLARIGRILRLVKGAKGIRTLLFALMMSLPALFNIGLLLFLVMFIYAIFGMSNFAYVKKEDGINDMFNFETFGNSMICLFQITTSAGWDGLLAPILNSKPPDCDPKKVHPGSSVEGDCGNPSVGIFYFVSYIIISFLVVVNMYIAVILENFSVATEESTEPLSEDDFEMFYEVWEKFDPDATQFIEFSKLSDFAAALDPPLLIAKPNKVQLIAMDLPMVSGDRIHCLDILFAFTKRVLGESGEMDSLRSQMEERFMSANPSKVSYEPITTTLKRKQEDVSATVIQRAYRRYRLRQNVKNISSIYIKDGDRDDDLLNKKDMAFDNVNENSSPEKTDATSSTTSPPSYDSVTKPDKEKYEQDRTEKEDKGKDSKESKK
T1 sequence (Q07699 whole entry partner, looked up): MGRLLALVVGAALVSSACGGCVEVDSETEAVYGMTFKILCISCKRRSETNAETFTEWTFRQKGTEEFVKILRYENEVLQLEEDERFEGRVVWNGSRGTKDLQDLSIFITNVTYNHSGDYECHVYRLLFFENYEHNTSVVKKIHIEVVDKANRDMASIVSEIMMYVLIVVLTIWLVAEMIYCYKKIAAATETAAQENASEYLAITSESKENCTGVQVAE
hNaV1.5, sequence (Q14524 whole entry): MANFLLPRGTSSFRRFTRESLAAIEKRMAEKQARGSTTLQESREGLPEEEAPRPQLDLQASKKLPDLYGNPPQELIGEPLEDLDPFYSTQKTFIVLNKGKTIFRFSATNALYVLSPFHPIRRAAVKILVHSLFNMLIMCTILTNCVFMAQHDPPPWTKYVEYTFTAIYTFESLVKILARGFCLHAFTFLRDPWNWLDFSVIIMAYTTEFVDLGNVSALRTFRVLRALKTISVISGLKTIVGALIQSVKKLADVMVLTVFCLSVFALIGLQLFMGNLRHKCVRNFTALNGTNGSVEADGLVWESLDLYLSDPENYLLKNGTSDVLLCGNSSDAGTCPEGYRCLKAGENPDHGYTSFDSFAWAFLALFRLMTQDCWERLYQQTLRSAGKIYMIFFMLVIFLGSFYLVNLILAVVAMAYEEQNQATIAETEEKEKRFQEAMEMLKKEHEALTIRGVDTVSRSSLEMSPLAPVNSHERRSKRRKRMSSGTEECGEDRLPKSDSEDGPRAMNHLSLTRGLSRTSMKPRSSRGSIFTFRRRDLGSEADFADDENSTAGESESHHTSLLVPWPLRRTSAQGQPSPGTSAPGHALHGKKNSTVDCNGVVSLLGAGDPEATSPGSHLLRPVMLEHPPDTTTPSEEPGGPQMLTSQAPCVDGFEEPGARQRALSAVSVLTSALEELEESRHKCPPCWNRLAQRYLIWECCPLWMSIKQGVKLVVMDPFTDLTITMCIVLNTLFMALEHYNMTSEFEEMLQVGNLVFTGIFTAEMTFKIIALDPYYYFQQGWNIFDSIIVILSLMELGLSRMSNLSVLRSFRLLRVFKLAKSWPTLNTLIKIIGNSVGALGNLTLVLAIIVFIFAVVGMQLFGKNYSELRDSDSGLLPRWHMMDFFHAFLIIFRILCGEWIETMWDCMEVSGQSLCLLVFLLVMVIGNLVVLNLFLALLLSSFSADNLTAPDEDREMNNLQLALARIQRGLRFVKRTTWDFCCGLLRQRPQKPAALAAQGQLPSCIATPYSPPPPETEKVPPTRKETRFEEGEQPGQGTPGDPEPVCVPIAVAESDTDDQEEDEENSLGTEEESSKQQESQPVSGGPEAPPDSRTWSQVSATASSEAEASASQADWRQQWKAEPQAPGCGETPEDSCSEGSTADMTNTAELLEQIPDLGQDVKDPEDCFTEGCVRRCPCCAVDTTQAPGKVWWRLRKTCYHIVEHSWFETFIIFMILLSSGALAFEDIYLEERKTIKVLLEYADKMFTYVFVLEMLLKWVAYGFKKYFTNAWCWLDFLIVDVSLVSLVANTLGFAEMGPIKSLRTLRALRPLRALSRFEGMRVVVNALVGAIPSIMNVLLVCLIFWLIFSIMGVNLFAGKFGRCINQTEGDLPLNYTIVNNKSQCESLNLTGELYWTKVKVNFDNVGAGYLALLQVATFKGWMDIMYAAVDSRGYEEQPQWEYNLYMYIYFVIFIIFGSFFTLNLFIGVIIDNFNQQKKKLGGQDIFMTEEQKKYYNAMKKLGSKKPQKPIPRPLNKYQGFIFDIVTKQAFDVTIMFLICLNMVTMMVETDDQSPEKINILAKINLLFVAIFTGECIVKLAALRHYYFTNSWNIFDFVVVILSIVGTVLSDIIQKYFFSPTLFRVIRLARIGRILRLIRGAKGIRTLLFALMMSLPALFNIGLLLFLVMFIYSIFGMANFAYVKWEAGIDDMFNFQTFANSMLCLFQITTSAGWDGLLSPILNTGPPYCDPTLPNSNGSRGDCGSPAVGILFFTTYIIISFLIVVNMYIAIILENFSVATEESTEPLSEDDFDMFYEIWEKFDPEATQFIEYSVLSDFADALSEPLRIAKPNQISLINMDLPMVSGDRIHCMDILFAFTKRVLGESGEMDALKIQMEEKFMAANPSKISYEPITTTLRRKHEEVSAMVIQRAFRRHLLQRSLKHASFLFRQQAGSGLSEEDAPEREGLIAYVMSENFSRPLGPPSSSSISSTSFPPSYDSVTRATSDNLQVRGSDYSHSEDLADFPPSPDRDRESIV

Row | Compound | IC50 [1] [nM] | IC50 [2] [nM] | IC50 [3] [nM]
1 | CC(C)COc1ncc(Oc2cc(F)c(C(=O)NS(=O)(=O)N(C)C)cc2Cl)cc1Cl [Preparation 3, 5-chloro-4-((5-chloro-6-isobutoxypyridin-3-yl)oxy)-N-(N,N-dimethylsulfamoyl)-2-fluorobenzamide] | 24.8 | 11 | 2180
2 | CNS(=O)(=O)NC(=O)c1cc(Cl)c(Oc2cnc(OCC(C)C)c(Cl)c2)cc1F [Preparation 6, 5-chloro-4-((5-chloro-6-isobutoxypyridin-3-yl)oxy)-2-fluoro-N-(N-methylsulfamoyl) benzamide] | 8.5 | 6 | 7180
3 | CC(C)COc1ncc(Oc2cc(F)c(C(=O)NS(=O)(=O)c3c[nH]cn3)cc2Cl)cc1Cl [Preparation 26, N-((1H-imidazol-4-yl)sulfonyl)-5-chloro-4-((5-chloro-6-isobutoxypyridin-3-yl)oxy)-2-fluorobenzamide] | 77.3 | 9 | –

Further lines, with some results ahead:

Row | IC50 [1] [nM] | IC50 [2] [nM] | Compound | IC50 [3] [nM]
4 | 6 | 2.1 | CC(C)Oc1ncc(Oc2cc(F)c(C(=O)NS(=O)(=O)N3CCC3)cc2C2CC2)cc1Cl [Preparation 87] | 1200
5 | 5 | 6.7 | C=Cc1cc(C(=O)NS(=O)(=O)N2CCC2)c(F)cc1Oc1cnc(OC(C)C)c(Cl)c1 [Preparation 91] | 2600
6 | 11 | 22 | COc1ncccc1-c1cc(C(=O)NS(=O)(=O)N2CCC2)ccc1Oc1cnc(OC(C)C)c(Cl)c1 [Preparation 86] | > 10000
7 | 25 | 8.4 | CC(C)Oc1ncc(Oc2ccc(C(=O)NS(=O)(=O)N3CCC3)cc2C2CC2)cc1Cl [Preparation 84] | 3500
